Source: patent US11421194B2, “Pumpless platform for high-throughput dynamic multicellular culture and chemosensitivity evaluation” (Hackensack Meridian Health Center For Discovery and …, priority 2018, dated 2022)

Tested on: MM.1S cells
Experiment: Chemosensitivity evaluation of MM.1S cells to bortezomib in the pumpless culture platform (LIVE/DEAD in situ staining, HCS)
Assay type: cell-based, human
Conditions: 4 h treatment, 24 h recovery
Experimental: The high-throughput capability of the pumpless culture platform was evaluated by studying the response of MM.1S cells to bortezomib at four different concentrations (0 nM, 5 nM, 10 nM, 20 nM). Bortezomib is a proteasome inhibitor that induces MM cell apoptosis.^29 Before introducing MM.1S cells, OSB were dynamically cultured for 4 days (in a CO2 incubator at […]). MM.1S cells were pre-labeled with 5 μM cell trace violet (Thermo Fisher Scientific), 10 μL MM.1S with a cell density of 4 million/ml were seeded into culture chambers ([…]). The device was then placed inside a CO2 incubator at 37° C. for 4 h to let MM.1S settle prior to starting the flow. Cells were co-cultured for another 24 h, and then treated with bortezomib for 4 h. After drug treatment, the medium was changed and cultures were allowed to recover for a 24 h period before analyses were conducted. MM.1S alone, cultured in the device but under static conditions were used as control.
Cell viability after treatment and recovery was determine as described above, using LIVE/DEAD Viability/Cytotoxicity Kit (0.1 μM calcein AM & 0.1 μM EthD-1). Culture chambers were scanned using HCS (CellInsight™ CX5, Thermo Fisher Scientific). Cell trace violet^+ calcein AM^+ cells were identified as live MM.1S and cell trace violet^+ EthD-1^+ cells were identified as dead cells, using pre-design CX5 software algorithms (HCS Studio 2.0 Cell Analysis Software) for cell quantification and rapid analysis.
Data quantification was performed automatically using the HCS Studio Software. The percentage of live (cell trace violet^+ calcein AM^+ cells/cell trace violet^+ cells) and dead (cell trace violet^+EthD-1^+/cell trace violet^+ cells) MM.1S cells were plotted against bortezomib concentration.

**Q.** Which viability at 0.005 µM (Homo sapiens, MM1.S, MM.1S cultured alone, static, bortezomib 5 nM, read-out: viability (percentage of live MM.1S: cell trace violet+ calcein AM+ cells/cell trace violet+ cells)) does the source give for CC(C)C[C@H](NC(=O)[C@H](Cc1ccccc1)NC(=O)c1cnccn1)B(O)O [bortezomib] here?
**A.** Its viability at 0.005 µM is about 60%.

**Q.** What about the viability at 0.01 µM (Homo sapiens, MM1.S, MM.1S cultured alone, static, bortezomib 10 nM, read-out: viability (percentage of live MM.1S: cell trace violet+ calcein AM+ cells/cell trace violet+ cells)) of the same molecule?
**A.** The viability at 0.01 µM was about 15%.

**Q.** What about the “viability (percentage of live MM.1S: cell trace violet+ calcein AM+ cells/cell trace violet+ cells)” value (MM.1S in co-culture with OSB (hFOB 1.19), dynamic culture, bortezomib treatment range 0 nM to 10 nM) of the same molecule?
**A.** The value was about 70%.
